Laboratory results: patent US7371748B2, “Benzothiazole derivatives” (Hoffman-La Roche Inc., priority 2003, dated 2008)
Read-outs that look alike come from different tables or passages of the source.

Columns and labels:
[1] = molecular target: T1, human adenosine A2A receptor (Homo sapiens, UniProt P29274); assay: [3H]-SCH-58261 binding assay, human adenosine A2A receptor; settings: human A2A receptor recombinantly expressed in CHO cell membranes, [3H]-SCH-58261 1 nM, Ki from IC50 by Cheng-Prussoff equation
T1 construct: expressed in transfected cells; host or cells: CHO cells, Semliki Forest virus expression system; membrane preparation
T1 sequence (P29274 whole entry): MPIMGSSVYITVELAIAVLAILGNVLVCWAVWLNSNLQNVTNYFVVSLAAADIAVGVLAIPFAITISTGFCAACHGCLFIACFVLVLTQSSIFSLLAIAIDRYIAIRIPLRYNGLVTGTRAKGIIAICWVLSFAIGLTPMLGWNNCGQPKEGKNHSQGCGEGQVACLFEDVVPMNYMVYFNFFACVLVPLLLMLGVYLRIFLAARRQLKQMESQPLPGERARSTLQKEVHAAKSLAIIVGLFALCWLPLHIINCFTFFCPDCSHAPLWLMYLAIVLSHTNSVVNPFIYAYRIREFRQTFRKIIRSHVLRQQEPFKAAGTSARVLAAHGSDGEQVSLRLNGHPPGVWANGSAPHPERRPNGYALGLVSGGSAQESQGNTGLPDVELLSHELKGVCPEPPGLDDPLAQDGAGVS
Experimental: Human Adenosine A2A Receptor
The human adenosine A2A receptor was recombinantly expressed in chinese hamster ovary (CHO) cells using the semliki forest virus expression system. Cells were harvested, washed twice by centrifugation, homogenized and again washed by centrifugation. The final washed membrane pellet was suspended in a Tris (50 mM) buffer containing 120 mM NaCl, 5 mM KCl, 2 mM CaCl2 and 10 mM MgCl2 (pH 7.4) (buffer A). The [^3H]-SCH-58261 (Dionisotti et al., […], Br J Pharmacol 121, 353; 1 nM) binding assay was carried out in 96-well plates in the presence of 2.5 μg of membrane protein, 0.5 mg of Ysi-poly-1-lysine SPA beads and 0.1 U adenosine deaminase in a final volume of 200 μl of buffer A. Non-specific binding was defined using xanthine amine congener (XAC; 2 μM). Compounds were tested at 10 concentrations from 10 μM-0.3 nM. All assays were conducted in duplicate and repeated at least two times. Assay plates were incubated for 1 hour at room temperature before centrifugation and then bound ligand determined using a Packard Topcount scintillation counter. IC50 values were calculated using a non-linear curve fitting program and Ki values calculated using the Cheng-Prussoff equation.

[2] = read-out: Ha2 (pKi) (converted)

| Compound | melting point | Ki [1, 2] | Ki ([1]; Ha2 (pKi)) |
| --- | --- | --- | --- |
| COc1ccc(C2CCOCC2)c2sc(NC(=O)N(C)CC3CCOC3)nc12 (stereo not drawn) [Example 25, 3-[4-Methoxy-7-(tetrahydro-pyran-4-yl)-benzothiazol-2-yl]-1-methyl-1-(tetrahydro-furan-3-ylmethyl)-urea] | 185 to 186 °C |  |  |
| COc1ccc(C2CCOCC2)c2sc(NC(=O)N(C)C3CCOCC3)nc12 [Example 24, 3-[4-Methoxy-7-(tetrahydro-pyran-4-yl)-benzothiazol-2-yl]-1-methyl-1-(tetrahydro-pyran-4-yl)-urea] | 237 to 238 °C | 3.16 nM |  |
| COc1ccc(C2CCOCC2)c2sc(NC(=O)N(C)C3CC4CCC3O4)nc12 (racemic) [Example 26, (rac)-(exo)-3-[4-Methoxy-7-(tetrahydro-pyran-4-yl)-benzothiazol-2-yl]-1-methyl-1-(7-oxa-bicyclo[2.2.1]hept-2-yl)-urea] | 197 to 200 °C | 1 nM |  |
| COc1ccc(C2CCOCC2)c2sc(NC(=O)N3CCC(CO)CC3)nc12 [Example 52, 4-Hydroxymethyl-piperidine-1-carboxylic acid [4-methoxy-7-(tetrahydro-pyran-4-yl)-benzothiazol-2-yl]-amide] | 202 to 203.5 °C | 1 nM |  |
| COc1ccc(C2CCOCC2)c2sc(NC(=O)N(C)[C@H]3CC[C@@](C)(O)CC3)nc12 [Example 23, 1-(4-cis-Hydroxy-4-methyl-cyclohexyl)-3-[4-methoxy-7-(tetrahydro-pyran-4-yl)-benzothiazol-2-yl]-1-methyl-urea] | 211 to 213 °C | 2 nM |  |
| COc1ccc(C2CCOCC2)c2sc(NC(=O)N(C)C3CC4CCC3O4)nc12 (single isomer, unassigned) [Example 56, (exo)-(−)-3-[4-Methoxy-7-(tetrahydro-pyran-4-yl]-benzothiazol-2-yl)-1-methyl-1-(7-oxa-bicyclo[2.2.1]hept-2-yl)-urea] | 155 to 190 °C | 3.16 nM |  |
| COc1ccc(C2COCCOC2)c2sc(NC(=O)c3ccc(C)s3)nc12 [Example 8, 5-Methyl-thiophene-2-carboxylic acid (7-[1,4]dioxepan-6-yl-4-methoxy-benzothiazol-2-yl)-amide] |  | 1 nM |  |
| COc1ccc(C2CCOCC2)c2sc(NC(=O)N(C)C3CC4CCC3O4)nc12 (single isomer, unassigned) [Example 55, (exo)-(+)-3-[4-Methoxy-7-(tetrahydro-pyran-4-yl)-benzothiazol-2-yl]-1-methyl-1-(7-oxa-bicyclo[2.2.1]hept-2-yl)-urea] | 185 to 188 °C | 1.26 nM |  |
| COc1ccc(C2CCOCC2)c2sc(NC(=O)C[C@H]3CC[C@H](O)CC3)nc12 [Example 50, (trans)-2-(4-Hydroxy-cyclohexyl)-N-[4-methoxy-7-(tetrahydro-pyran-4-yl)-benzothiazol-2-yl]-acetamide] | 120 to 145 °C | 2.51 nM |  |
| COc1ccc(C2COCCOC2)c2sc(NC(=O)c3ccncc3)nc12 [Example 15, N-(7-[1,4]Dioxepan-6-yl-4-methoxy-benzothiazol-2-yl)-isonicotinamide] |  | 2 nM |  |
| COc1ccc(C(=O)Nc2nc3c(OC)ccc(C4COCCOC4)c3s2)cc1 [Example 9, N-(7-[1,4]Dioxepan-6-yl-4-methoxy-benzothiazol-2-yl)-4-methoxy-benzamide] |  | 2 nM |  |
| CCC(=O)N(C)Cc1ccc(C(=O)Nc2nc3c(OC)ccc(C4COCCOC4)c3s2)cc1 [Example 44, N-(7-[1,4]Dioxepan-6-yl-4-methoxy-benzothiazol-2-yl)-4-[(methyl-propionyl-amino)-methyl]-benzamide] |  | 2.51 nM |  |
| COc1ccc(C2COCCOC2)c2sc(NC(=O)c3ccnc(CN4CCCC4)c3)nc12 [Example 47, N-(7-[1,4]Dioxepan-6-yl-4-methoxy-benzothiazol-2-yl)-2-pyrrolidin-1-ylmethyl-isonicotinamide] | 108 to 111 °C |  |  |
| COc1ccc(C2CCOCC2)c2sc(NC(=O)N(C)C3CCN(N(C)C)CC3)nc12 [Example 53, 1-(1-Dimethylamino-piperidin-4-yl)-3-[4-methoxy-7-(tetrahydro-pyran-4-yl)-benzothiazol-2-yl]-1-methyl-urea] | 167 to 170 °C |  |  |
| COc1ccc(C2CCOCC2)c2sc(NC(=O)[C@H]3CCCO3)nc12 [Example 51, (R)-Tetrahydro-furan-2-carboxylic acid [4-methoxy-7-(tetrahydro-pyran-4-yl)-benzothiazol-2-yl]-amide] | 158 to 161 °C |  |  |
| COc1ccc(C2CCOCC2)c2sc(NC(=O)N3CC4CCC3CC4)nc12 [Example 32, 2-Aza-bicyclo[2.2.2]octane-2-carboxylic acid [4-methoxy-7-(tetrahydro-pyran-4-yl)-benzothiazol-2-yl]-amide] | 237 to 239 °C | 2 nM |  |

| Compound | melting point | Ki [1, 2] | Ki ([1]; Ha2 (pKi)) |
| --- | --- | --- | --- |
| COCCNCc1cc(C(=O)Nc2nc3c(OC)ccc(C4CCOCC4)c3s2)ccn1 [Example 35, 2-[(2-Methoxy-ethylamino)-methyl]-N-[4-methoxy-7-(tetrahydro-pyran-4-yl)-benzothiazol-2-yl]-isonicotinamide] | 93 to 95 °C | 1.58 nM |  |
| COc1ccc(C2CCOCC2)c2sc(NC(=O)N(C)C3CCN(C)CC3)nc12 [Example 20, 3-[4-Methoxy-7-(tetrahydro-pyran-4-yl)-benzothiazol-2-yl]-1-methyl-1-(1-methyl-piperidin-4-yl)-urea] | 152 to 155 °C | 2.51 nM |  |
| COc1ccc(C2COCCOC2)c2sc(NC(=O)c3ccc(F)cc3)nc12 [Example 10, N-(7-[1,4]Dioxepan-6-yl-4-methoxy-benzothiazol-2-yl)-4-fluoro-benzamide] |  | 1.26 nM |  |
| COc1ccc(C2CCOCC2)c2sc(NC(=O)N(C)[C@H]3CC[C@@H](O)CC3)nc12 [Example 22, cis-1-(4-Hydroxy-cyclohexyl)-3-[4-methoxy-7-(tetrahydro-pyran-4-yl)-benzothiazol-2-yl]-1-methyl-urea] | 191 to 193 °C | 2.51 nM |  |
| COc1ccc(C2CCOCC2)c2sc(NC(=O)N3CCC(C)(O)CC3)nc12 [Example 30, 4-Hydroxy-4-methyl-piperidine-1-carboxylic acid [4-methoxy-7-(tetrahydro-pyran-4-yl)-benzothiazol-2-yl]-amide] | 90 to 95 °C | 1.26 nM |  |
| COc1ccc(C2COCCOC2)c2sc(NC(=O)c3cnn(C)c3)nc12 [Example 43, 1-Methyl-1H-pyrazole-4-carboxylic acid (7-[1,4]dioxepan-6-yl-4-methoxy-benzothiazol-2-yl)-amide] |  | 0.398 nM |  |
| COc1ccc(C2COCCOC2)c2sc(NC(=O)c3ccnc(N4CCCC4)c3)nc12 [Example 46, N-(7-[1,4]Dioxepan-6-yl-4-methoxy-benzothiazol-2-yl)-2-pyrrolidin-1-yl-isonicotinamide] |  | 2.51 nM |  |
| COCCN(C)Cc1cc(C(=O)Nc2nc3c(OC)ccc(C4COCCOC4)c3s2)ccn1 [Example 48, N-(7-[1,4]Dioxepan-6-yl-4-methoxy-benzothiazol-2-yl)-2-{[(2-methoxy-ethyl)-methyl-amino]-methyl}-isonicotinamide] | 100 to 107 °C |  |  |
| COc1ccc(C2CCOCC2)c2sc(NC(=O)N3CCC4(CC3)OCCO4)nc12 [Example 29, 1,4-Dioxa-8-aza-spiro[4.5]decane-8-carboxylic acid [4-methoxy-7-(tetrahydro-pyran-4-yl)-benzothiazol-2-yl]-amide] |  |  | 1.58 nM |
| COc1ccc(C2COCCOC2)c2sc(NC(=O)C3CCCCC3)nc12 [Example 11, Cydohexanecarboxylic acid (7-[1,4]dioxepan-6-yl-4-methoxy-benzothiazol-2-yl)-amide] |  | 2.51 nM |  |
| COc1ccc(C2CCOCC2)c2sc(NC(=O)N(C)[C@H]3CC[C@H](O)CC3)nc12 [Example 21, trans-1-(4-Hydroxy-cyclohexyl)-3-[4-methoxy-7-(tetrahydro-pyran-4-yl)-benzothiazol-2-yl]-1-methyl-urea] | 160 °C | 2.51 nM |  |
| COc1ccc(C2CCOCC2)c2sc(NC(=O)N3C[C@@H]4C[C@H]3CO4)nc12 [Example 31, (1S,4S)-2-Oxa-5-aza-bicyclo[2.2.1]heptane-5-carboxylic acid [4-methoxy-7-(tetrahydro-pyran-4-yl)-benzothiazol-2-yl]-amide] | 193 to 197 °C | 1.26 nM |  |
| COc1ccc(C2COCCOC2)c2sc(NC(=O)c3ccc(CCl)cc3)nc12 [Example 39, 4-Chloromethyl-N-(7-[1,4]dioxepan-6-yl-4-methoxy-benzothiazol-2-yl)-benzamide] |  | 1.58 nM |  |
| COc1ccc(C2COCCOC2)c2sc(NC(=O)c3cncn3C)nc12 [Example 14, 3-Methyl-3H-imidazole-4-carboxylic acid (7-[1,4]dioxepan-6-yl-4-methoxy-benzothiazol-2-yl)-amide] |  | 1 nM |  |
| COc1ccc(C2CCOCC2)c2sc(NC(=O)CC3CCCO3)nc12 (stereo not drawn) [Example 54, N-[4-Methoxy-7-(tetrahydro-pyran-4-yl)-benzothiazol-2-yl]-2-(tetrahydro-furan-2-yl)-acetamide] | 170 to 174 °C |  |  |
